The values below come from patent US10004701B2, “Methods and compositions for treating infection” (UNIVERSITY OF ROCHESTER, priority 2012, dated 2018).

SMILES strings stand for the structures. Counter-ions that a name gives are not always drawn. Like-named read-outs stand apart in the source and are kept apart here.

Assay in all cases: AK assay 384-well format, Prestwick library screening
One assay concerns E. faecium. The assay is classed as cell-based, Enterococcus faecium. The settings on record: 50 μM final drug concentration; for fold induction at 50 µM: Enterococcus faecium, 3 h.
Another assay relates to E. coli. The assay is classed as cell-based, Escherichia coli. The note with it: 50 μM final drug concentration; for fold induction at 50 µM: Escherichia coli, 3 h.
Assay [1] deals with S. aureus strain USA300-0114. Type of assay: cell-based, Staphylococcus aureus. The note with it: 50 μM final drug concentration; for fold induction at 50 µM: Staphylococcus aureus, USA300, 3 h.
In a further assay the test system is K. pneumoniae. Type of assay: cell-based, Klebsiella pneumoniae. The note with it: 50 μM final drug concentration; for fold induction at 50 µM: Klebsiella pneumoniae, 3 h.
The subject of the next assay is P. aeruginosa. The assay is classed as cell-based, Pseudomonas aeruginosa. The settings on record: 50 μM final drug concentration; for fold induction at 50 µM: Pseudomonas aeruginosa, 3 h.
Another assay relates to E. cloacae. The assay is classed as cell-based, Enterobacter cloacae. The note with it: 50 μM final drug concentration; for fold induction at 50 µM: Enterobacter cloacae, 3 h.
The subject of assay [2] is A. baumannii strain 98-37-09. The assay is classed as cell-based, Acinetobacter baumannii. The settings on record: 50 μM final drug concentration; for fold induction at 50 µM: Acinetobacter baumannii, 983709, 3 h.
The mark [3] stands for this setting: planktonic E. faecium, 384-well, cutoff for positive-scoring molecules 3-fold increase, read-out: AK-based Prestwick Library Screening Results: E. faecium (increase in extracellular AK activity).
Where [4] appears, read: planktonic E. coli, 384-well, cutoff for positive-scoring molecules 3-fold increase, read-out: AK-based Prestwick Library Screening Results: E. coli (increase in extracellular AK activity).
Where [5] appears, read: planktonic S. aureus, 384-well, cutoff for positive-scoring molecules 3-fold increase, read-out: AK-based Prestwick Library Screening Results: S. aureus (increase in extracellular AK activity).
[6] abbreviates: planktonic K. pneumoniae, 384-well, cutoff for positive-scoring molecules 3-fold increase, read-out: AK-based Prestwick Library Screening Results: K. pneumoniae (increase in extracellular AK activity).
[7] abbreviates: planktonic P. aeruginosa, 384-well, cutoff for positive-scoring molecules 3-fold increase, read-out: AK-based Prestwick Library Screening Results: P. aeruginosa (increase in extracellular AK activity).
[8] abbreviates: planktonic E. cloacae, 384-well, cutoff for positive-scoring molecules 3-fold increase, read-out: AK-based Prestwick Library Screening Results: E. cloacae (increase in extracellular AK activity).
[9] abbreviates: planktonic A. baumannii, 384-well, cutoff for positive-scoring molecules 3-fold increase, read-out: AK-based Prestwick Library Screening Results: A. baumannii (increase in extracellular AK activity).
[10] abbreviates: 384-well format, cutoff for positive-scoring molecules 3-fold increase, read-out: AK-based Prestwick Library Screening Results, E. faecium (increase in extracellular AK activity).
The mark [11] stands for this setting: 384-well format, cutoff for positive-scoring molecules 3-fold increase, read-out: AK-based Prestwick Library Screening Results, E. coli (increase in extracellular AK activity).
[12] abbreviates: 384-well format, cutoff for positive-scoring molecules 3-fold increase, read-out: AK-based Prestwick Library Screening Results, S. aureus (increase in extracellular AK activity).
Where [13] appears, read: 384-well format, cutoff for positive-scoring molecules 3-fold increase, read-out: AK-based Prestwick Library Screening Results, K. pneumoniae (increase in extracellular AK activity).
Where [14] appears, read: 384-well format, cutoff for positive-scoring molecules 3-fold increase, read-out: AK-based Prestwick Library Screening Results, P. aeruginosa (increase in extracellular AK activity).
Setting [15] is: 384-well format, cutoff for positive-scoring molecules 3-fold increase, read-out: AK-based Prestwick Library Screening Results, E. cloacae (increase in extracellular AK activity).
The mark [16] stands for this setting: 384-well format, cutoff for positive-scoring molecules 3-fold increase, read-out: AK-based Prestwick Library Screening Results, A. baumannii (increase in extracellular AK activity).
Setting [17] is: planktonic, cutoff for positive-scoring molecules 3-fold increase.

On to `CCCNCC(O)COc1ccccc1C(=O)CCc1ccccc1` (stereo not shown) [Propafenone hydrochloride], for which the fold induction at 50 µM in the assay on E. faecium (planktonic E. faecium, cutoff for positive-scoring molecules 3-fold increase, read-out: AK-based Prestwick Library Screening Results, E. faecium (increase in extracellular AK activity)) was 1; with E. coli (planktonic E. coli, cutoff for positive-scoring molecules 3-fold increase, read-out: AK-based Prestwick Library Screening Results, E. coli (increase in extracellular AK activity)) it was 1; in assay [1] (planktonic S. aureus, cutoff for positive-scoring molecules 3-fold increase, read-out: AK-based Prestwick Library Screening Results, S. aureus (increase in extracellular AK activity)), 0.7; in the assay on K. pneumoniae (planktonic K. pneumoniae, cutoff for positive-scoring molecules 3-fold increase, read-out: AK-based Prestwick Library Screening Results, K. pneumoniae (increase in extracellular AK activity)), 0.6; in the assay with P. aeruginosa (planktonic P. aeruginosa, cutoff for positive-scoring molecules 3-fold increase, read-out: AK-based Prestwick Library Screening Results, P. aeruginosa (increase in extracellular AK activity)), 0.7; in the assay on E. cloacae (planktonic E. cloacae, cutoff for positive-scoring molecules 3-fold increase, read-out: AK-based Prestwick Library Screening Results, E. cloacae (increase in extracellular AK activity)), 0.8. The fold induction at 50 µM in assay [2] (planktonic A. baumannii, cutoff for positive-scoring molecules 3-fold increase, read-out: AK-based Prestwick Library Screening Results, A. baumannii (increase in extracellular AK activity)) came to 0.7.
For the compound `CC1=C(CC(=O)O)c2cc(F)ccc2/C1=C\c1ccc([S+](C)[O-])cc1` (stereo not shown) [Sulindac], the fold induction at 50 µM in the assay on E. faecium (setting [3]) was 0.9; in the assay with E. coli (setting [4]), 1.1; in assay [1] (setting [5]) it was 0.8; in the assay with K. pneumoniae (setting [6]), 1; in the assay on P. aeruginosa (setting [7]), 0.8; with E. cloacae (setting [8]), 1.5. For the same compound, the fold induction at 50 µM in assay [2] (setting [9]) is 1.1.
As to `CN(C)CCC(c1ccc(Cl)cc1)c1ccccn1` (stereo not shown) [Chlorpheniramine maleate], the fold induction at 50 µM stood at 0.9 in the assay with E. faecium (setting [10]); 1 in the assay on E. coli (setting [11]); 0.8 in assay [1] (setting [12]); 0.7 in the assay with K. pneumoniae (setting [13]); 0.8 with P. aeruginosa (setting [14]); 1.1 in the assay with E. cloacae (setting [15]). In assay [2] (setting [16]), the fold induction at 50 µM turned out to be 0.9.
Regarding `Cc1cccc(Nc2ccccc2C(=O)O)c1C` [Mefenamic acid], the fold induction at 50 µM was found to be 0.9 with E. faecium (setting [3]); 0.9 with E. coli (setting [4]); 0.7 in assay [1] (setting [5]); 0.8 in the assay with K. pneumoniae (setting [6]); 0.9 with P. aeruginosa (setting [7]); 1.6 with E. cloacae (setting [8]). Besides, the fold induction at 50 µM in assay [2] (setting [9]) came to 1.2.
With `CC#C[C@]1(O)CC[C@H]2[C@@H]3CCC4=CC(=O)CCC4=C3[C@@H](c3ccc(N(C)C)cc3)C[C@@]21C` [Mifepristone], the fold induction at 50 µM in the assay with E. faecium (setting [3]) worked out at 1.1; in the assay with E. coli (planktonic E. coli, 384-well, […], read-out: AK-based Prestwick Library Screening Results: E. coli (increase in extracellular AK activity)), 1.3; in assay [1] (setting [5]), 0.7; in the assay with K. pneumoniae (setting [6]) it was 0.9; in the assay on P. aeruginosa (setting [7]), 1; with E. cloacae (setting [8]), 1.4. The fold induction at 50 µM in assay [2] (setting [9]) is 1.1.
As for `C=CCc1ccccc1OCC(O)CNC(C)C` (stereo not shown) [Alprenolol hydrochloride], the fold induction at 50 µM was 0.9 with E. faecium (setting [10]); 0.6 in the assay on E. coli (setting [11]); 0.6 in assay [1] (setting [12]); 0.5 in the assay on K. pneumoniae (setting [13]); 0.5 in the assay with P. aeruginosa (setting [14]); 0.4 in the assay on E. cloacae (setting [15]). In assay [2] (setting [16]), the fold induction at 50 µM amounted to 0.7.
Take `Cc1ccc(S(=O)(=O)NC(=O)NN2CC3CCCC3C2)cc1` (stereo not shown) [Gliclazide]: the fold induction at 50 µM with E. faecium (planktonic, cutoff for positive 3-fold increase, read-out: AK-based Prestwick Library Screening Results, E. faecium (fold increase in extracellular AK activity)) was 1; in the assay with E. coli (planktonic, cutoff for positive 3-fold increase, read-out: AK-based Prestwick Library Screening Results, E. coli (fold increase in extracellular AK activity)), 1.2; in assay [1] (planktonic, cutoff for positive 3-fold increase, read-out: AK-based Prestwick Library Screening Results, S. aureus (fold increase in extracellular AK activity)) it was 1; with K. pneumoniae (planktonic, cutoff for positive 3-fold increase, read-out: AK-based Prestwick Library Screening Results, K. pneumoniae (fold increase in extracellular AK activity)), 1.2; in the assay with P. aeruginosa (planktonic, cutoff for positive 3-fold increase, read-out: AK-based Prestwick Library Screening Results, P. aeruginosa (fold increase in extracellular AK activity)), 1.2; in the assay on E. cloacae (planktonic, cutoff for positive 3-fold increase, read-out: AK-based Prestwick Library Screening Results, E. cloacae (fold increase in extracellular AK activity)) it was 1.8. In addition, the fold induction at 50 µM in assay [2] (planktonic, cutoff for positive 3-fold increase, read-out: AK-based Prestwick Library Screening Results, A. baumannii (fold increase in extracellular AK activity)) turned out to be 1.3.
In the case of `O=S(=O)(O)c1cc(O)ccc1O` [Ethamsylate], the fold induction at 50 µM with E. faecium (planktonic E. faecium, […], read-out: AK-based Prestwick library screening result, E. faecium (fold increase in extracellular AK activity)) was 0.9; in the assay with E. coli (planktonic E. coli, […], read-out: AK-based Prestwick library screening result, E. coli (fold increase in extracellular AK activity)), 1.2; in assay [1] (planktonic S. aureus, […], read-out: AK-based Prestwick library screening result, S. aureus (fold increase in extracellular AK activity)) it was 1; in the assay with K. pneumoniae (planktonic K. pneumoniae, […], read-out: AK-based Prestwick library screening result, K. pneumoniae (fold increase in extracellular AK activity)), 1.1; with P. aeruginosa (planktonic P. aeruginosa, […], read-out: AK-based Prestwick library screening result, P. aeruginosa (fold increase in extracellular AK activity)), 1; with E. cloacae (planktonic E. cloacae, […], read-out: AK-based Prestwick library screening result, E. cloacae (fold increase in extracellular AK activity)), 0.8. Besides, the fold induction at 50 µM in assay [2] (planktonic A. baumannii, […], read-out: AK-based Prestwick library screening result, A. baumannii (fold increase in extracellular AK activity)) was 1.2.
For the compound `Cc1ncc([N+](=O)[O-])n1CC(O)CCl` (stereo not shown) [Ornidazole], the fold induction at 50 µM with E. faecium (setting [10]) worked out at 0.9; in the assay with E. coli (setting [11]), 0.6; in assay [1] (setting [12]), 0.5; in the assay with K. pneumoniae (setting [13]), 0.5; in the assay on P. aeruginosa (setting [14]), 0.6; in the assay on E. cloacae (setting [15]), 0.6. In addition, in assay [2] (setting [16]), the fold induction at 50 µM came out at 0.6.
Regarding `O=C1NCN(c2ccccc2)C12CCN(CCCC(c1ccc(F)cc1)c1ccc(F)cc1)CC2` [Fluspirilen], the “AK-based Prestwick Library Screening Results, E. faecium (fold increase in extracellular AK activity)” value with E. faecium (setting [17]) is given as 1.3. The “AK-based Prestwick Library Screening Results, E. coli (fold increase in extracellular AK activity)” value in the assay on E. coli (setting [17]) is on record as 1.3. Further, the “AK-based Prestwick Library Screening Results, S. aureus (fold increase in extracellular AK activity)” value in assay [1] (setting [17]) is 1.4. Moreover, the “AK-based Prestwick Library Screening Results, K. pneumoniae (fold increase in extracellular AK activity)” value in the assay with K. pneumoniae (setting [17]) was found to be 1.1. In addition, the “AK-based Prestwick Library Screening Results, P. aeruginosa (fold increase in extracellular AK activity)” value in the assay with P. aeruginosa (setting [17]) is on record as 0.8. The “AK-based Prestwick Library Screening Results, E. cloacae (fold increase in extracellular AK activity)” value with E. cloacae (setting [17]) came out at 1.0. Moreover, the “AK-based Prestwick Library Screening Results, A. baumannii (fold increase in extracellular AK activity)” value in assay [2] (setting [17]) was determined as 6.6.
